Test [1] deals with Mouse T13 cells (recombinant Hepa1), alkaline phosphatase. Conditions: Table 3 comparison, El-Fouly et al.; read-out: ED50 (the source's name); cited from earlier work.
Test [2] has as its system Human 101L cells (recombinant HepG2), luciferase. The following applies: Table 3 comparison, Postlind et al.; read-out: ED50 (the source's name); cited from earlier work.
Test [3] relates to guinea pig G16L1.1c8 cells. Kind of test: Antagonism of TCDD luciferase induction by 2,2',5,5'-TCB (FIG. 7). The class given is cell-based. Conditions: TCDD 5 nM, 24 h. On the procedure:
(§1) The bar graph of FIG. 7 illustrates that 2,2',5,5'-TCB antagonizes induction of luciferase activity by TCDD in a species-specific manner, and thus, 2,2',5,5'-TCB is not a TCDD-like compound as defined herein. In particular, six-well plates containing the indicated cell lines were incubated with DMSO (control), with TCDD (5 nM), with 2,2',5,5'-TCB (25 μM), or with both TCDD (5 nM) and 2,2',5,5'-TCB (25 μM) for 24 hours. Luciferase activity in cell lysates was determined as described above. Values represent the mean ± the standard evaluation of at least triplicate determinations.

Another test deals with rat H4L1.1c4 cells. Described as above. In kind it is cell-based. The following applies: TCDD 5 nM, 24 h. As to the method:
as §1

The subject of the next test is human HG2L1.1c3 cells. Described as above. Conditions: TCDD 5 nM, 24 h. The class given is cell-based. As to the method:
as §1

Test [4] has as its system mouse H1L1.1 cells. The description is as above. The class given is cell-based. The following applies: TCDD 5 nM, 24 h. As to the method: as §1
For the next test, the system named is H4L1.1c4 cells. Kind of test: TCDD-inducible luciferase activity, stably transfected clonal cell line. The class given is cell-based, rat. Conditions: 24 h. As to the method: (§2) Using the stabilized luciferase assay system (purchased from Promega), luciferase activity in an aliquot of the cleared lysed cell supernatant (20 μl) was determined by mixing it with 100 µl of luciferase assay reagent (purchased from Promega) and measuring the resulting luminescence in a Turner Luminometer or Dynatech ML3000 microplate luminometer (light output was integrated over 1 minute after a delay time of 30 seconds).
(§3) Using a microplate adaptation of the method reported by Bradford in "A Rapid Sensitive Method for the Quantitation of Microgram Quantities of Protein Utilizing the Principle of Protein-Dye Binding", Anal. Biochem., […], pp. 248-254 (1976), luciferase activity was standardized to the protein concentration of the supernatant (with bovine serum albumin as the protein standard). Because of instrument differences in luminescence measurement and data output, luciferase activity was determined as relative light units (RLU) per microgram of protein, which was converted to milligram of protein as reported in the Tables below. […]
(§4) More particularly, isolated clones were grown until confluent, and then incubated in the absence or presence of TCDD (1 nM solubilized in DMSO) for 24 hours. After the incubation, luciferase activity was determined as described above.

Test [5] has as its system mouse H1L1.1 cells. Put plainly: Luciferase induction by TCDD in DMSO or serum, 96-well, 4 h; detection limits (FIG. 8). The class given is cell-based. As to the method: Specifically, since it is desired to utilize the present bioassay system directly to detect PAHs in samples without the need for solvent extraction and concentration, the dose-dependence of luciferase induction in cells incubated with increasing concentrations of TCDD in serum versus that observed with increasing concentrations of TCDD in DMSO was examined. In other words, the present bioassay system should be advantageously employed directly with a sample of serum from an animal or human, where the sample may contain TCDD or other PAHs and the serum is the solvent, whereby solvent extraction of the sample with DMSO as the solvent is unnecessary.
The cells were incubated with the respective increasing concentrations of TCDD for 4 hours and luciferase activity of cell lysates determined as follows. […]
After incubation for an additional 15 minutes, luciferase activity in the lysed cells was determined. Luciferase activity was sensitively measured using its bioluminescent substrate, luciferin in a Dynatech ML3000 microplate luminometer. In these experiments, cells either kept intact or lysed using luciferase lysis buffer (purchased from Promega) and luciferase activity in an aliquot of the lysate was determined by automatic injection of assay reagent and measurement of the resulting bioluminescence.

The next test deals with HG2L1.1c3 cells. Kind of test: TCDD-inducible luciferase activity, stably transfected clonal cell line. The class given is cell-based, human. The following applies: 24 h. On the procedure:
as §2, §3, §4

Setting [6] is: TCDD 1 nM, mean ± SD of triplicate assays.

For the molecule `Clc1cc2c(cc1Cl)Oc1cc(Cl)c(Cl)cc1O2` [TCDD, 2,3,7,8-tetrachlorodibenzo-para-dioxin], the EC50 in test [1] and in test [2] was 350 pM in each case. In addition, the “Luciferase induction by TCDD alone” value (in test [3]; in the test on rat H4L1.1c4 cells; in the test with human HG2L1.1c3 cells; in the test with mouse H1L1.1 cells [4]) was “induced luciferase activity” each time. Besides, the fold induction was 25 in the test with H4L1.1c4 cells (Rattus norvegicus, TCDD 1 nM vs DMSO) and 29 in the test on HG2L1.1c3 cells (Homo sapiens, TCDD 1 nM vs DMSO). For the same molecule, the “Luciferase activity, TCDD in DMSO” value in the test with H4L1.1c4 cells (setting [6]) is 0.49 ± 0.03 RLU/mg protein; in the test with HG2L1.1c3 cells (setting [6]), 25.04 ± 1.88 RLU/mg protein. Besides, the “Relative potency (ED50) for luciferase induction, TCDD-serum versus TCDD-DMSO” value in the test with mouse H1L1.1 cells [5] is on record as “significantly lower for the TCDD-serum sample than for the TCDD-DMSO sample”. For the same molecule, the “Induction of luciferase by TCDD-containing serum” value with mouse H1L1.1 cells [5] (TCDD in serum) is recorded as “dose-dependent manner”.

Values taken from patent US5854010A, “Bioassay for detecting 2,3,7,8-tetrachlorodibenzo-para-dioxin and TCDD-like compounds and novel recombinant cell line useful therefor” (priority 1997, dated 1998).
